The test system of series [1] is NCI H292. Briefly: Cytotoxicity assay (Version 2), automated, AC50. Format: cell-based, human. Particulars: NCI H292 cells, Version 2, activity concentration at -50%, 4 parameter Hill-fit. The protocol:
(§1) Cultivation of cells was performed according to standard procedures with the media recommended by the provider. The cells, in a total volume of 100 μL, were seeded in a 96-well plate with a white bottom (#3610). After a 24 h incubation period at 37° C. and 5% CO2, the medium was exchanged by adding 90 μL fresh medium. The treatment started by adding the test compound in 10 μL of culture medium to the cells in triplicates. Concentrations ranging from 10^−5 M to 10^−13 M were chosen. Two identically treated sets of samples were prepared. One set was treated with the test compound alone, whereas to the second set the compound and 10 nM elastase was added followed by a 72 h incubation period at 37° C. and 5% CO2. The proliferation was detected using the MTT assay (ATCC). At the end of the incubation period the MTT reagent was added to all samples for 4h. Lysis of the cells followed by addition of the detergent was done overnight. The formed dye was detected at 570 nm. The proliferation of untreated but otherwise identically handled cells was define as the […].
(§2) The Cytotoxicity assay (Version 2) was performed as above described. Some changes were applied as the assays were performed in an automated fashion and the IC50 values determination was changed. Here the change in metabolic activity of the cells, in percent, was calculated by normalization of the measured values to the absorbance values of medium containing wells without cells (=−100% ) and the absorbance of the DMSO-treated cells (=0% ). AC50 values (activity concentration at -50% o) were determined by means of a 4 parameter Hill-fit using GeneData Screener software.

For series [2], the system named is HT29. Briefly: Cytotoxicity assay (Version 2), automated, AC50. It counts as cell-based, human. Particulars: HT29 cells, Version 2, activity concentration at -50%, 4 parameter Hill-fit. The method, then:
as §1, §2

Series [3] has as its system 786-O. As to the kind of experiment: Cytotoxicity assay (Version 2), automated, AC50. The conditions noted are these: 786-O cells, Version 2, activity concentration at -50%, 4 parameter Hill-fit. It counts as cell-based, human. The method, then: as §1, §2
The test system of series [4] is SUM149. Briefly: Cytotoxicity assay (Version 2), automated, AC50. Format: cell-based. The conditions noted are these: SUM149 cells, Version 2, activity concentration at -50%, 4 parameter Hill-fit. The method, then:
as §1, §2

Series [5] is described as follows: Pharmacokinetics in rat after intravenous administration. The conditions noted are these: male rats, intravenous 0.5 mg/kg bolus, plasma, non-compartmental analysis. Format: in vivo. The protocol: Male rats (n=3) were given an intravenous 0.5 mg/kg bolus dose of test article dissolved in plasma with 1% DMSO and 1% ethanol (Ex A3 only). Serial blood samples were collected up to 24 hours post-dose. Plasma was harvested from blood samples and stored frozen until sample analysis. Test article plasma concentrations were analyzed by LC/MS/MS.

Series [6] has as its system SUM149. Briefly: Cytotoxicity in vitro in the presence and absence of elastase (MTT assay). It counts as cell-based. Particulars: SUM149 cells, 72 h. The protocol:
as §1
In general terms: Tetrazolium assays rely on reduction of a dye to a coloured formazan, in cell work by metabolically active cells.

For series [7], the system named is NCI H292. Described as above. It counts as cell-based, human. The conditions noted are these: NCI H292 cells, 72 h. The protocol: as §1
The test system of series [8] is HT29. The description is as above. Format: cell-based, human. The conditions noted are these: HT29 cells, 72 h. The method, then: as §1
Series [9] relates to 786-O. Described as above. Format: cell-based, human. Particulars: 786-O cells, 72 h. The protocol: as §1

What is called AC50 is the concentration at which the activity in the assay is half-maximal. Lower therefore signals activity at low concentration. In general, AUC refers to the area under the concentration-time curve, a measure of exposure. Low values mean low exposure, high ones high exposure. One may read the clearance as the rate of elimination divided by the concentration. The half-life is the time needed for the level to fall by half in the phase considered. Low values mean rapid decline, high ones slow decline. The term IC50 denotes the midpoint of a concentration-inhibition curve. Low readings indicate greater potency in that assay, high ones weaker potency in that assay.

Counter-ions that a name gives are not always drawn. *1 amine or outer side, *2 acyl side, *3 side chain or, on linkers, in order; H or OH if unused. Where a SMILES comes first, the peptide text is derived from it. [ ]: non-standard residue; d: D form. The star is where a group is joined. X1 = CCCNC(=O)Nc1cccc(S(=O)(=O)Nc2cccc([C@@H](CC(=O)O)NC(=O)Nc3ccc(N*)cc3)c2)c1; Camptothecin(7-Et) = CCc1c2c(nc3ccccc13)-c1cc3c(c(=O)n1C2)COC(=O)[C@@]3(CC)O*; CO = O=C([*:1])[*:2]; Sar = CNCC(=O)O Some results are limits rather than exact numbers.

Turning to `CCCNC(=O)Nc1cccc(S(=O)(=O)Nc2cccc([C@@H](CC(=O)O)NC(=O)Nc3ccc(NC(=O)NCCOCCOCCOCCC(=O)NCCNC(=O)CC[C@H](NC(=O)CCCC(=O)NCCN(C)CCN(C)CCN(C)CC(=O)N[C@@H](CC(N)=O)C(=O)N4CCC[C@H]4C(=O)N[C@H](C(=O)O[C@]4(CC)C(=O)OCc5c4cc4n(c5=O)Cc5c-4nc4ccccc4c5CC)C(C)C)C(=O)NCCNC(=O)CCOCCOCCOCCNC(=O)Nc4ccc(NC(=O)N[C@H](CC(=O)O)c5cccc(NS(=O)(=O)c6cccc(NC(=O)NCCC)c6)c5)cc4)cc3)c2)c1` [Compound A9], the AC50 in series [1] (no elastase) was 110 to 1000 nM; in series [1] (with elastase) it was ≤ 10 nM; in [2] (no elastase), > 1000 nM; in series [2] (with elastase) it was 11 to 100 nM; in series [3] (no elastase), 110 to 1000 nM; in [3] (with elastase), ≤ 10 nM. Besides, the AC50 in series [4] (no elastase) was 110 to 1000 nM; in [4] (with elastase) it was ≤ 10 nM.
As for `CCCNC(=O)Cc1cccc(S(=O)(=O)Nc2cccc([C@@H](CC(=O)O)NC(=O)Nc3ccc(NC(=O)NCCOCCOCCOCCC(=O)NCCNC(=O)[C@H](CCC(=O)NCCNC(=O)CCOCCOCCOCCNC(=O)Nc4ccc(NC(=O)N[C@H](CC(=O)O)c5cccc(NS(=O)(=O)c6cccc(NC(=O)NCCC)c6)c5)cc4)NC(=O)CCCC(=O)NCCN(C)CCN(C)CCN(C)CC(=O)NCC(=O)N4CCC[C@H]4C(=O)N[C@H](C(=O)O[C@]4(CC)C(=O)OCc5c4cc4n(c5=O)Cc5c-4nc4ccccc4c5CC)C(C)C)cc3)c2)c1` [Compound A11], the AC50 in [1] (no elastase) is ≤ 10 nM; in [1] (with elastase), ≤ 10 nM; in [2] (no elastase), 110 to 1000 nM; in series [2] (with elastase), 11 to 100 nM; in series [3] (no elastase), 11 to 100 nM; in series [3] (with elastase), ≤ 10 nM. Moreover, the AC50 in series [4] (no elastase) and in [4] (with elastase) was ≤ 10 nM each time.
With `CCCNC(=O)Nc1cccc(S(=O)(=O)Nc2cccc([C@H](CC(=O)O)NC(=O)Nc3ccc(NC(=O)NCCOCCOCCOCCC(=O)NCCNC(=O)CC[C@H](NC(=O)CCCC(=O)NCCN(C)CCN(C)CCN(C)CC(=O)NCC(=O)N4CCC[C@H]4C(=O)N[C@H](C(=O)O[C@]4(CC)C(=O)OCc5c4cc4n(c5=O)Cc5c-4nc4ccccc4c5CC)C(C)C)C(=O)NCCNC(=O)CCOCCOCCOCCNC(=O)Nc4ccc(NC(=O)N[C@@H](CC(=O)O)c5cccc(NS(=O)(=O)c6cccc(NC(=O)NCCC)c6)c5)cc4)cc3)c2)c1` [Compound A12], the AC50 is 11 to 100 nM in [1] (no elastase); ≤ 10 nM in [1] (with elastase); 110 to 1000 nM in series [2] (no elastase); 11 to 100 nM in series [2] (with elastase); ≤ 10 nM in series [3] (no elastase); ≤ 10 nM in series [3] (with elastase). Further, the AC50 in series [4] (no elastase) and in [4] (with elastase) was ≤ 10 nM in each case.
In the case of `CCCNC(=O)Nc1cccc(S(=O)(=O)Nc2cccc([C@@H](CC(=O)O)NC(=O)Nc3ccc(NC(=O)NCCN(C)CCN(C)CCN(C)CC(=O)N[C@@H](CC(N)=O)C(=O)N4CCC[C@H]4C(=O)N[C@H](C(=O)O[C@]4(CC)C(=O)OCc5c4cc4n(c5=O)Cc5c-4nc4ccccc4c5CC)C(C)C)cc3)c2)c1.Cl.Cl.Cl` [Compound B4b, (4S)-4,11-diethyl-3,14-dioxo-3,4,12,14-tetrahydro-1H-pyrano[3′,4′:6,7]indolizino[1,2-b]quinolin-4-yl N^2-{13-[4-({[(1R)-2-carboxy-1-{3-[({3-[(propylcarbamoyl)amino]phenyl}sulfonyl)amino]phenyl}ethyl]carbamoyl}amino)anilino]-3,6,9-trimethyl-13-oxo-12-aza-3,6,9-triazoniatridecan-1-oyl}-L-asparaginyl-L-prolyl-L-valinate trichloride], the AUC in series [5] lay within 1000 to 10000 ng·h/mL. In [5], this compound had a clearance of 0.5 to 5 mL/min/kg. This compound returned a half-life in series [5] of 5 to 10 h. In series [5] (read-out: Vss), the Vd was > 0.1 L/kg. Moreover, the concentration for half-maximal inhibition (IC50) lay in the range of 10 to 100 nM in series [6] (compound alone (no elastase)); 0.01 to 0.1 nM in series [6] (with 10 nM elastase); 10 to 100 nM in series [7] (compound alone (no elastase)); 0.1 to 1 nM in series [7] (with 10 nM elastase); 10 to 100 nM in series [8] (compound alone (no elastase)); 0.1 to 1 nM in series [8] (with 10 nM elastase). The IC50 in series [9] (compound alone (no elastase)) lay within 10 to 100 nM; in series [9] (with 10 nM elastase), 0.1 to 1 nM.
Consider `CCCNC(=O)Nc1cccc(S(=O)(=O)Nc2cccc([C@@H](CC(=O)O)NC(=O)Nc3ccc(NC(=O)N(C)CC(=O)N(C)CC(=O)N(C)CC(=O)N(C)CC(=O)N[C@@H](CC(=O)O)C(=O)N4CCC[C@H]4C(=O)N[C@H](C(=O)O[C@]4(CC)C(=O)OCc5c4cc4n(c5=O)Cc5c-4nc4ccccc4c5CC)C(C)C)cc3)c2)c1` [Compound B6] ({X1-CO}-[Sar][Sar][Sar][Sar]DPV-{Camptothecin(7-Et)}), for which the AC50 in [1] (no elastase) is 110 to 1000 nM; in series [1] (with elastase) it was ≤ 10 nM; in series [2] (no elastase), > 1000 nM; in [2] (with elastase), 11 to 100 nM; in [3] (no elastase), 110 to 1000 nM; in series [3] (with elastase), ≤ 10 nM. The AC50 was 110 to 1000 nM in [4] (no elastase) and ≤ 10 nM in series [4] (with elastase).
Turning to `CCCNC(=O)Nc1cccc(S(=O)(=O)Nc2cccc([C@@H](CC(=O)O)NC(=O)Nc3ccc(NC(=O)NCCOCCOCCOCCC(=O)N[C@@H](CC(=O)OCCC[N+](C)(C)C)C(=O)N4CCC[C@H]4C(=O)N[C@H](C(=O)O[C@]4(CC)C(=O)OCc5c4cc4n(c5=O)Cc5c-4nc4ccccc4c5CC)C(C)C)cc3)c2)c1` [Compound C5, trifluoroacetate], the AC50 in [1] (no elastase) is 110 to 1000 nM; in [1] (with elastase), ≤ 10 nM; in [2] (no elastase) it was > 1000 nM; in series [2] (with elastase), 11 to 100 nM; in series [3] (no elastase), 110 to 1000 nM; in [3] (with elastase), ≤ 10 nM. For the same compound, the AC50 in series [4] (no elastase) is 110 to 1000 nM; in [4] (with elastase), ≤ 10 nM.
`CCCNC(=O)Nc1cccc(S(=O)(=O)Nc2cccc([C@@H](CC(=O)O)NC(=O)Nc3ccc(NC(=O)NCCOCCOCCOCCC(=O)N[C@@H](CC(=O)O)C(=O)N4CCC[C@H]4C(=O)N[C@@H](C)C(=O)O[C@]4(CC)C(=O)OCc5c4cc4n(c5=O)Cc5c-4nc4ccccc4c5CC)cc3)c2)c1` [Compound C10, disodium (4S)-4,11-diethyl-3,14-dioxo-3,4,12,14-tetrahydro-1H-pyrano[3′,4′:6,7]indolizino[1,2-b]quinolin-4-yl 1-[(2S)-2-(carboxylatomethyl)-17-{4-[({(1R)-2-carboxylato-1-[3-({3-[(propylcarbamoyl)amino]benzene-1-sulfonyl}amino)phenyl]ethyl}carbamoyl)amino]anilino}-4,17-dioxo-7,10,13-trioxa-3,16-diazaheptadecanan-1-oyl]-L-prolyl-L-alaninate]: the AC50 in series [1] (no elastase) is 11 to 100 nM; in series [1] (with elastase), ≤ 10 nM; in [2] (no elastase), 110 to 1000 nM; in series [2] (with elastase), 11 to 100 nM; in series [3] (no elastase), 11 to 100 nM; in [3] (with elastase), ≤ 10 nM. The figures for the AC50 in [4] (no elastase) and in series [4] (with elastase) were 11 to 100 nM and ≤ 10 nM, respectively.
With `CCCNC(=O)Nc1cccc(S(=O)(=O)Nc2cccc([C@@H](CC(=O)O)NC(=O)Nc3ccc(NC(=O)N(C)CC(=O)N(C)CC(=O)N(C)CC(=O)N(C)CC(=O)N(C)CC(=O)N(C)CC(=O)N(C)CC(=O)N(C)CC(=O)N[C@@H](CC(=O)O)C(=O)N4CCC[C@H]4C(=O)N[C@H](C(=O)O[C@]4(CC)C(=O)OCc5c4cc4n(c5=O)Cc5c-4nc4ccccc4c5CC)C(C)C)cc3)c2)c1` [Compound D3] ({X1-CO}-[Sar][Sar][Sar][Sar][Sar][Sar][Sar][Sar]DPV-{Camptothecin(7-Et)}), the AC50 in series [1] (no elastase) is 110 to 1000 nM; in series [1] (with elastase) it was ≤ 10 nM; in [2] (no elastase), 110 to 1000 nM; in series [2] (with elastase) it was 11 to 100 nM; in series [3] (no elastase) it was 110 to 1000 nM; in [3] (with elastase), ≤ 10 nM. In addition, the figures for the AC50 in series [4] (no elastase) and in series [4] (with elastase) were 110 to 1000 nM and ≤ 10 nM, respectively.
